Test results reported in ChEMBL document CHEMBL1150968, “Debromosceptrin, an alkaloid from the Caribbean sponge Agelas conifera” (1998).
Active and inactive are the calls of the source. The calls are words filed in the database; no cut-off is given here.

Key:
[1] = tested on: Mycobacterium tuberculosis; assay: Antimycobacterial activity against Mycobacterium tuberculosis at 12.5 ug/ml; assay type: functional
[2] = tested on: Human immunodeficiency virus; assay: Antiviral activity against HIV; assay type: functional, organism-based

Row | SMILES | Activity [1] [%] | Activity [2]
1 | Cl.Cl.Nc1ncc([C@H]2[C@H](CNC(=O)c3cc(Br)c[nH]3)[C@@H](CNC(=O)c3cc(Br)c[nH]3)[C@@H]2c2cnc(N)[nH]2)[nH]1 [SCEPTRIN HYDROCHLORIDE] | 14 | –
2 | Nc1ncc([C@H]2[C@H](CNC(=O)c3ccc[nH]3)[C@@H](CNC(=O)c3ccc[nH]3)[C@@H]2c2cnc(N)[nH]2)[nH]1 | – | inactive
3 | Nc1nc([C@H]2[C@H](CNC(=O)c3ccc[nH]3)[C@@H](CNC(=O)c3cc(Br)c[nH]3)[C@@H]2c2c[nH]c(N)n2)c[nH]1 | – | inactive
4 | Cl.Cl.Nc1ncc([C@H]2[C@H](CNC(=O)c3ccc[nH]3)[C@@H](CNC(=O)c3cc(Br)c[nH]3)[C@@H]2c2cnc(N)[nH]2)[nH]1 [MONOBROMOSCEPTRIN] | 35 | –
5 | Nc1nc([C@H]2[C@H](CNC(=O)c3cc(Br)c[nH]3)[C@@H](CNC(=O)c3cc(Br)c[nH]3)[C@@H]2c2c[nH]c(N)n2)c[nH]1 | – | inactive
